Test results from patent US12037372B2, “Bioactive peptides derived from snakes” (Universiteit Leiden, priority 2018, dated 2024).
Several values for one entry are separate records, joined by “and”; a condition that tells them apart may be missing. Equal values may be shown once.

Experiments:
Test in all cases: Bactericidal activity of peptides (in vitro killing assay)
[1] = test system: MDR S. aureus (LUH 14616), MRSA; type: cell-based, Staphylococcus aureus; settings: MDR S. aureus LUH 14616; 2-hour treatment; 50% v/v human plasma; lowest concentration killing ≥99.9%; median (range)
Description: (§1) Enterococcus faecium (LUH 15122), Staphylococcus aureus (LUH 14616), Klebsiella pneumoniae (LUH 15104), Acinetobacter baumannii (RUH 875), Pseudomonas aeruginosa (LUH 15103), Enterobacter cloacae (LUH 15114) and Escherichia coli (LUH 15117) were used. Prior to experimentation the bacteria were taken from a glycerol stock stored at −80° C. and cultured overnight on sheep blood agar plates at 37° C. On the day of experimentation the bacteria were cultured in tryptic soy broth (TSB; Oxoid) for 2.5 hours at 37° C. and 200 rpm to a mid-logarithmic phase. The bacterial suspension was washed in phosphate buffered saline (PBS; pH 7.4), centrifuged for 10 minutes at 3000 rpm, and resuspended in PBS to the desired concentration, as determined by measuring the absorbance at 600 nm.
(§2) As a control the bacteria were also incubated in PBS with either 50% plasma or 50% urine without peptide. The plate was incubated for 2 hours at 37° C. and 200 rpm. After incubation the number of viable bacteria was determined microbiologically by plating the samples and a 10-times dilution series in PBS on diagnostic sensitivity test agar plates (DST; Sigma). The DST plates were incubated overnight at 37° C. Results were expressed as lethal concentration 99.9, or LC99.9, which represents the lowest concentration of peptide that killed 99.9% of the bacteria within 2 hours of incubation.

[2] = test system: MDR P. aeruginosa (LUH 15103); type: cell-based, Pseudomonas aeruginosa; settings: 2-hour treatment, 50% v/v human plasma, median (range)
Description: as §1, §2

[3] = test system: multidrug resistant strain Acinetobacter baumannii RUH875; type: cell-based; settings: 50% (v/v) human plasma, 2 hours
Description: as §1, §2

With KRFAGFFQFVIGVSFHF [SP21] the “LC99.9 (μM) MRSA in 50% plasma” value [1] was >102.4 µM and the “LC99.9 (μM) MDR P. aeruginosa in 50% plasma” value [2] was >102.4 µM.
For KRFVGSFQLVVGVSFRF [SP34], the “LC99.9 (μM) MRSA in 50% plasma” value [1] was >102.4 µM and the “LC99.9 (μM) MDR P. aeruginosa in 50% plasma” value [2] was >102.4 µM.
For “KRFKKFFKKLKNSVKKRVKKFFRKPRVIGVTFPF [SP3]”, the “LC99.9 (μM) MRSA in 50% plasma” value [1] was 3.2 µM and the “LC99.9 (μM) MDR P. aeruginosa in 50% plasma” value [2] was 0.8 µM.
“KRFKKFFKKVKKSVKKRLKKIFKKPMVIGVTFPF [SP9]” was tested, and the “LC99.9 (μM) MRSA in 50% plasma” value [1] was 51.2 (25.6-51.2) μM and the “LC99.9 (μM) MDR P. aeruginosa in 50% plasma” value [2] was 1.6 µM.
With “RKFKKSFKKIRKWVKKATKIAGEVAVEILITKVILGSVGL [SP1]” the “LC99.9 (μM) MRSA in 50% plasma” value [1] was >102.4 µM and the “LC99.9 (μM) MDR P. aeruginosa in 50% plasma” value [2] was 3.2 µM.
KRFKKFFKKIKNGIKTFIKKTQMAIGSHFRW [SP30] was tested, and the “LC99.9 (μM) MRSA in 50% plasma” value [1] was 51.2 µM and the “LC99.9 (μM) MDR P. aeruginosa in 50% plasma” value [2] was 2.4 (1.6-3.2) μM.
For “KRFKKFFMKLKKSVKKRVMKFFKKPMVIGVTFPF [SP12]”, the “LC99.9 (μM) MRSA in 50% plasma” value [1] was 25.6 (12.8->102.4) μM and the “LC99.9 (μM) MDR P. aeruginosa in 50% plasma” value [2] was 3.2 µM.
For “FKKFFRKVKKGVHRYFKKNKFYIA [SP27-65]”, the “LC99.9 (μM) A. baumannii” value ([3]; Table 5) was 1.6 µM.
For “KRFKKFFKKVKKSVKKRLKKIFKKPMVIGVTIPF [SP6]”, the “LC99.9 (μM) MRSA in 50% plasma” value [1] was 57.6 (12.8-102.4) μM and the “LC99.9 (μM) MDR P. aeruginosa in 50% plasma” value [2] was 0.4 µM.
“KRFTFYKKVKKNVENLLNKFFKKLRVIGDSIPF [SP26]” was tested, and the “LC99.9 (μM) MRSA in 50% plasma” value [1] was >102.4 µM and the “LC99.9 (μM) MDR P. aeruginosa in 50% plasma” value [2] was 12.8 µM.
“FRKVKKGVHRYFKKNKFYIAATIP [SP27-69]” was tested, and the “LC99.9 (μM) A. baumannii” value ([3]; Table 5) was 25.6 µM.
For “RKVKKGVHRYFKKNKFYIAATIPY [SP27-70]”, the “LC99.9 (μM) A. baumannii” value ([3]; Table 5) was 12.8 µM.
In the case of KRFKNFFKRVRDGIRDFFRKNHIVIGVNFRF [SP31], the “LC99.9 (μM) MRSA in 50% plasma” value [1] is reported as 102.4 µM and the “LC99.9 (μM) MDR P. aeruginosa in 50% plasma” value [2] is reported as 25.6 µM.
“KRVKRFKKFFKKVKKSVKKRLKKIFKKPMVIGVTIPF [SP2]” was tested, and the “LC99.9 (μM) MRSA in 50% plasma” value [1] was 25.6 µM and the “LC99.9 (μM) MDR P. aeruginosa in 50% plasma” value [2] was 0.4 µM.
With KRFKKFLKKLKKSVKKHVKEFFKKPRVIGV [SP35] the “LC99.9 (μM) MRSA in 50% plasma” value [1] was 51.2 µM and the “LC99.9 (μM) MDR P. aeruginosa in 50% plasma” value [2] was 1.6 µM.
In the case of “KVKKGVHRYFKKNKFYIAATIPYY [SP27-71]”, the “LC99.9 (μM) A. baumannii” value ([3]; Table 5) is reported as 12.8 µM.
KRFAGFFQFVVGVSFRF [SP33] was tested, and the “LC99.9 (μM) MRSA in 50% plasma” value [1] was >102.4 µM and the “LC99.9 (μM) MDR P. aeruginosa in 50% plasma” value [2] was >102.4 µM.
KRFKDFFHRIRDGVRDFFRNNHFVCGVNFRF [SP17] was tested, and the “LC99.9 (μM) MRSA in 50% plasma” value [1] was >102.4 µM and the “LC99.9 (μM) MDR P. aeruginosa in 50% plasma” value [2] was >102.4 µM.
For KRFKKFFRKIKKGFRKIFKKTKIFIGGTIPI [SP15], the “LC99.9 (μM) MRSA in 50% plasma” value [1] was 12.8 µM and the “LC99.9 (μM) MDR P. aeruginosa in 50% plasma” value [2] was 0.8 µM.
“KRFKKFFKKLKNSVRKCAKKFFKKLRVIRVSIPF [SP24]” was tested, and the “LC99.9 (μM) MRSA in 50% plasma” value [1] was 6.4 µM and the “LC99.9 (μM) MDR P. aeruginosa in 50% plasma” value [2] was 1.6 µM.
With “VKKGVHRYFKKNKFYIAATIPYYG [SP27-72]” the “LC99.9 (μM) A. baumannii” value ([3]; Table 5) was 25.6 µM.
“KRFRKFFKRLLKSVRRAVKKFRKKPRLIGLSTLL [SP8]” was tested, and the “LC99.9 (μM) MRSA in 50% plasma” value [1] was 25.6 µM and the “LC99.9 (μM) MDR P. aeruginosa in 50% plasma” value [2] was 1.6 µM.
With “KRFKKFFRKLKKSVKKRVKKFFKKPRVIGVTIPF [SP11]” the “LC99.9 (μM) MRSA in 50% plasma” value [1] was 3.2 µM and the “LC99.9 (μM) MDR P. aeruginosa in 50% plasma” value [2] was 0.4 µM.
For “KRFKKFFKKVKKSVKKRLKKIFKKPIVIGVSIPF [SP25]”, the “LC99.9 (μM) MRSA in 50% plasma” value [1] was 12.8 µM and the “LC99.9 (μM) MDR P. aeruginosa in 50% plasma” value [2] was 0.4 µM.
With “RFKKFFRKVKKGVHRYFKKNKFYI [SP27-64]” the “LC99.9 (μM) A. baumannii” value ([3]; Table 5) was 0.8 µM.
For “DQVERGNFAKDGSKARVKKSLTKWVKFLKKIIAKLGRPLIGF [SP22]”, the “LC99.9 (μM) MRSA in 50% plasma” value [1] was 102.4 µM and the “LC99.9 (μM) MDR P. aeruginosa in 50% plasma” value [2] was 51.2 µM.
In the case of KRFLRVFRKLKKGLKKLFKRKKVVTGYVTA [SP32], the “LC99.9 (μM) MRSA in 50% plasma” value [1] is reported as 25.6 µM and the “LC99.9 (μM) MDR P. aeruginosa in 50% plasma” value [2] is reported as 12.8 µM.
For “KRFKKFFKKAKKSVKKRLKKFFNKTRVIGVSIPF [SP14]”, the “LC99.9 (μM) MRSA in 50% plasma” value [1] was 12.8 µM and the “LC99.9 (μM) MDR P. aeruginosa in 50% plasma” value [2] was 0.4 µM.
For AREKSFLQKMKVILQLSSQDQIQAF [SP20], the “LC99.9 (μM) MRSA in 50% plasma” value [1] was >102.4 µM and the “LC99.9 (μM) MDR P. aeruginosa in 50% plasma” value [2] was >102.4 µM.
In the case of KRFKNFFKKIRDGIHEFIHNNRFVIGVNFRF [SP29], the “LC99.9 (μM) MRSA in 50% plasma” value [1] is reported as >102.4 µM and the “LC99.9 (μM) MDR P. aeruginosa in 50% plasma” value [2] is reported as 51.2 µM.
KRFLRLVVFKKLKKGLRKLFKKKKIVTGHVTS [SP28] was tested, and the “LC99.9 (μM) MRSA in 50% plasma” value [1] was 51.2 µM and the “LC99.9 (μM) MDR P. aeruginosa in 50% plasma” value [2] was 6.4 µM.
In the case of KRFKKFFKKIKTGIKKVIKKTKQAIASHFRW [SP18], the “LC99.9 (μM) MRSA in 50% plasma” value [1] is reported as > 102.4 µM and 102.4 µM and the “LC99.9 (μM) MDR P. aeruginosa in 50% plasma” value [2] is reported as 0.8 µM.
With “KRFKKFFRKVKKGVHRYFKKNKFY [SP27-63]” the “LC99.9 (μM) A. baumannii” value ([3]; Table 5) was 0.4 µM and the “LC99.9 (μM) A. baumannii” value ([3]; Table 6) was 0.4 µM.
In the case of “KRFKKFFKKVKKSVKKRLKKIFKKPMVIGVSIPF [SP7]”, the “LC99.9 (μM) MRSA in 50% plasma” value [1] is reported as 38.4 (25.6-51.2) μM and the “LC99.9 (μM) MDR P. aeruginosa in 50% plasma” value [2] is reported as 0.8 µM.
“FFRKVKKGVHRYFKKNKFYIAATI [SP27-68]” was tested, and the “LC99.9 (μM) A. baumannii” value ([3]; Table 5) was 12.8 µM.
With “KKFFRKVKKGVHRYFKKNKFYIAA [SP27-66]” the “LC99.9 (μM) A. baumannii” value ([3]; Table 5) was 1.6 µM.
“KRFKKFFKKIKNSVKKRVKKFFKKPRVIGVSIPF [SP23]” was tested, and the “LC99.9 (μM) MRSA in 50% plasma” value [1] was 4.8 (3.2-6.4) μM and the “LC99.9 (μM) MDR P. aeruginosa in 50% plasma” value [2] was 0.2 µM.
With KRFLRVFKKLKRGIRKLFKKKKIVTGPLTS [SP19] the “LC99.9 (μM) MRSA in 50% plasma” value [1] was >102.4 µM and the “LC99.9 (μM) MDR P. aeruginosa in 50% plasma” value [2] was 12.8 µM.
With “KFFRKVKKGVHRYFKKNKFYIAAT [SP27-67]” the “LC99.9 (μM) A. baumannii” value ([3]; Table 5) was 3.2 µM.
